{"source": "ChEMBL document CHEMBL1157294", "about": "“Rautandiols A and B, pterocarpans and cytotoxic constituents from Neorautanenia mitis” (J Nat Prod, 2006)", "key": {"MCF7": {"tested_on": "MCF7", "experiment": "Cytotoxicity against human MCF7 cells after 3 days by SRB assay", "type": "functional, cell-based", "conditions": "MCF7, 72 h"}, "A549": {"tested_on": "A549", "experiment": "Cytotoxicity against human A549 cells after 3 days by SRB assay", "type": "functional, cell-based", "conditions": "A549, 72 h"}}, "data": [{"smiles": "C=C(C)[C@H]1Cc2c(ccc3c(=O)c4c(oc23)COc2cc(OC)c(OC)cc2-4)O1", "note": "[DEHYDROROTENONE]", "values": [{"measurement": "IC50", "setting": "MCF7", "value": "> 5", "unit": "µg/mL"}, {"measurement": "IC50", "setting": "A549", "value": "> 5", "unit": "µg/mL"}]}, {"smiles": "COc1cc(OC)c(-c2coc3cc4occc4cc3c2=O)cc1OC", "note": "[ISOELLIPTOL]", "values": [{"measurement": "IC50", "setting": "MCF7", "value": 0.8, "unit": "µg/mL"}, {"measurement": "IC50", "setting": "A549", "value": 1.6, "unit": "µg/mL"}]}, {"smiles": "c1cc2cc3c(cc2o1)OC[C@H]1c2cc4c(cc2O[C@@H]31)OCO4", "note": "[NEODULIN]", "values": [{"measurement": "IC50", "setting": "MCF7", "value": "> 5", "unit": "µg/mL"}, {"measurement": "IC50", "setting": "A549", "value": "> 5", "unit": "µg/mL"}]}, {"smiles": "COc1cc2c(cc1-c1cc3cc4ccoc4cc3oc1=O)OCO2", "note": "[PACHYRRIZINE]", "values": [{"measurement": "IC50", "setting": "MCF7", "value": 3.6, "unit": "µg/mL"}, {"measurement": "IC50", "setting": "A549", "value": "> 5", "unit": "µg/mL"}]}, {"smiles": "CC1(C)Oc2cc3c(cc2CC1O)[C@@H]1Oc2cc(O)ccc2[C@@H]1CO3", "note": "(some centres undefined) [RAUTANDIOL A]", "values": [{"measurement": "IC50", "setting": "MCF7", "value": "> 5", "unit": "µg/mL"}, {"measurement": "IC50", "setting": "A549", "value": "> 5", "unit": "µg/mL"}]}, {"smiles": "CC(C)(O)C1Cc2cc3c(cc2O1)OC[C@H]1c2ccc(O)cc2O[C@@H]31", "note": "(some centres undefined) [RAUTANDIOL B]", "values": [{"measurement": "IC50", "setting": "MCF7", "value": "> 5", "unit": "µg/mL"}, {"measurement": "IC50", "setting": "A549", "value": "> 5", "unit": "µg/mL"}]}, {"smiles": "C=C(C)[C@H]1Cc2c(ccc3c2O[C@@H]2COc4cc(OC)c(OC)cc4[C@@H]2C3=O)O1", "note": "[ROTENONE]", "values": [{"measurement": "IC50", "setting": "MCF7", "value": 0.008, "unit": "µg/mL"}, {"measurement": "IC50", "setting": "A549", "value": 0.04, "unit": "µg/mL"}]}]}
